Where two headings read alike, the source gives them in different places.
What was measured:
[1] = for mechanical integrity of the film: dropped 5 times
Method: Fragility of the spray coating was tested using two foil arrays coated with ˜200 μg of nicotine per foil (˜11 μg nicotine/mm^2, which is about a 21 μm thick film of nicotine m-salicylate). Five foils from each array were assayed for pre-drop coated dose. Each foil array was then placed into a dose cartridge, sealed into a plastic tube, and dropped 3 times onto the floor from a height of about 1 meter. Five additional foils from each array were assayed for the post-drop coated dose.
In a follow-up study, we studied the effect of thickness on the mechanical integrity of the film. In this experiment, three foils from an array were assayed for pre-drop coated dose. Each foil array was then placed into a dose cartridge, sealed into a plastic tube, and dropped 5 times onto the floor from a height of about 1 meter. Three foils from each array were then assayed for the post-drop coated dose.

[2] = sensitive LC method for phenol
[3] = for Nicotine Mass Loss: isothermal TGA, API powder
Method: A typical calorimetric scan of nicotine m-salicylate powder is illustrated in FIG. 2. […] Thermogravimetric analysis on the powder was run in both scanning and isothermal modes. […] Isothermal data were also obtained on the API powder (˜10 mg per run) at 40° C., 50° C., and 60° C. for periods of at least 3 days.

[4] = remark: listed apart in the source
Method: Solubility limit tests were performed on nicotine m-salicylate in a number of relevant solvents. […] The approximate saturation limits are in units of mg nicotine equivalent per mL of solvent. […] However, the analytical methods developed for detecting impurities related to the m-salicylate use 236 nm as the detection wavelength. Methanol has high absorbance in this range and can therefore interfere with the analytes of interest. Acetonitrile, on the other hand, has low background absorbance in this wavelength range and is therefore ideal for use.

[5] = remark: listed apart in the source
Method: The innate volatility of free base nicotine can be greatly altered once bound to a counterion acid. The stability of nicotine in the resulting salt form can vary widely, ultimately impacting its desirability for commercial consideration. Certain packaging configurations can mitigate nicotine loss. […] Decreasing the equilibrium vapor pressure point is believed to minimize the total nicotine loss. For this study, different packaging configurations were tested to investigate the following variables: container material, presence of adjuncts, and total volume of space. Container materials consisted of either glass or multi-laminate foil pouches. Glass is impermeable to vapors. Once the total volume of the glass container is flooded with nicotine vapors and any surface adsorption occurs, equilibrium is reached and no additional loss of nicotine should be observed. Though foil is also impermeable, the inner surface of the pouch is lined with an ethylene acid copolymer that promotes vapor absorbency. The copolymer should lead to greater nicotine loss within a pouch than a glass vial of the same total volume.
The presence of adjuncts, such as a drug cartridge housing, is a likely scenario for the final commercial product. The composition of the adjunct will affect equilibrium vapor pressure point if it preferentially absorbs vapors. For this study, a polycarbonate adjunct with a surface area of ˜150 cm^2 was introduced to the glass vial and pouch scenarios. Finally, the total packaging volume was examined. The smaller the available space, the sooner the equilibrium pressure can be reached. Open containers represent the worst case scenario, as the infinite space means that the equilibrium pressure can never be achieved. To set up the experiment, screening foils were spray coated with a 1×2 cm footprint of nicotine m-salicylate to a thickness of ˜11 ug nicotine/mm^2 (equivalent to a coated dose of 200 ug nicotine equivalent on an EMD foil). After a few random screening foils were assayed for initial time point coated dose, the remaining foils were placed in one of the following containers: • Capped glass vial (˜40 mL volume) • Heat-sealed standard pouch (˜133 mm×87 mm) • Heat-sealed standard pouch, stored with polycarbonate material (˜150 cm^2 surface area) • Uncapped glass vial (same vial as first bullet) • Binder-clipped (semi-sealed) standard pouch (˜133 mm×87 mm) • Capped glass vial, stored with polycarbonate • Heat-sealed half pouch (˜69 mm×87 mm) • Uncovered Petri dish
The packaged screening foils were stored at either 40° C. (oven) or 25° C. (laboratory cabinet), without relative humidity control. At pre-determined time points, three foils from each condition were washed with 5 mL of 50% v/v acetonitrile in water and analyzed on the HPLC for nicotine and m-salicylate content.

[6] = for time coated film relatively stable (not more than 20% nicotine loss): 40 μg/foil; for time coated film stable (nicotine): 170 μg/foil
Method: Loss of nicotine and m-salicylic acid due to volatility and hygroscopic effects: Nicotine salts can suffer volatility issues and can also be quite hygroscopic. For instance, nicotine sulfate absorbs water so readily that it is shipped in aqueous solution. Hygroscopic effects on nicotine m-salicylate were evaluated for 2 doses at two conditions, 22° C./44% RH (ambient condition) and 40° C./75% RH. According to the Antoine equation for water, 40° C./75% RH translates to supersaturated humidity at 22° C. Each coated EMD array was placed flat on a Petri dish (without a cover) which was then stored at either 22° C./44% RH or 40° C./75% RH. At each time point, at least 4 random individual foils were removed from the array and each foil was extracted with 1.5 ml of 50/50 ACN/water for coated dose determination.

[7] = 25° C.; cited from earlier work
[8] = film thickness 29 μm, Post-drop (5 drops, about 1 meter)
[9] = film thickness 37 μm, Post-drop (5 drops, about 1 meter)

CN1CCCC1c1cccnc1.O=C(O)c1cccc(O)c1 (stereo not drawn) [Nicotine m-salicylate, nicotine meta-salicylate]
mechanical integrity of the film ([1]; 350 μg nicotine (~37 μm thick)): begin to show signs of fragility | M-salicylate coated dose (average ± 1 standard deviation) [1, 8]: 244 ± 3 | Nicotine coated dose (average ± 1 standard deviation) [1, 8]: 277 ± 3 | M-salicylate coated dose (average ± 1 standard deviation) ([1]; film thickness 29 μm, Pre-drop): 247 ± 1 | Nicotine coated dose (average ± 1 standard deviation) ([1]; film thickness 29 μm, Pre-drop): 275 ± 3 | M-salicylate coated dose (average ± 1 standard deviation) [1, 9]: 299 ± 7 | Nicotine coated dose (average ± 1 standard deviation) [1, 9]: 335 ± 6 | M-salicylate coated dose (average ± 1 standard deviation) ([1]; film thickness 37 μm, Pre-drop): 311 ± 0 | Nicotine coated dose (average ± 1 standard deviation) ([1]; film thickness 37 μm, Pre-drop): 347 ± 6 | coated dose post-drop vs pre-drop, average of two arrays ([1]; ~200 μg nicotine per foil, dropped 3 times): ~0.8% | mechanical integrity of the film ([1]; ~29 μm thickness): not lost | maximum content of phenol in aerosols (estimated from method sensitivity; phenol not observed) [2]: ≤ 0.013% | MMAD (NGI cups coated with 1% (w/v) benzoic acid): 0.9 um | MMAD (bare NGI cups, 30 LPM, average): 0.7 μm | Particle size (overall conclusion): about 1 μm | Nicotine Mass Loss ([3]; 40° C.): 5 µg/day | Nicotine Mass Loss ([3]; 50° C.): 19 µg/day | Nicotine Mass Loss ([3]; 60° C.): 107 µg/day | residual after scanning TGA ([3]; room temperature to 500° C., pan weighed before and after): ~0.2% | nicotine mass loss, times less than nicotine ortho-salicylate ([3]; storage temperatures between 40-60° C.): 2-3 × | Saturation point ([4]; 50/50 acetonitrile/water): 64 mg nicotine/mL | Saturation point ([4]; 80/20 methanol/water): 118 mg nicotine/mL | Saturation point ([4]; Acetonitrile): 9 mg nicotine/mL | Saturation point ([4]; Ethanol): 33 mg nicotine/mL | Saturation point ([4]; Methanol): 103 mg nicotine/mL | Saturation point ([4]; Water): 58 mg nicotine/mL | Saturation point ([4]; acetone): <<10 mg nicotine/mL | solubility ([4]; acetone): < 10000 µg/mL | solubility ([4]; pure acetonitrile): ~10000 µg/mL | loss of nicotine content ([5]; 25° C., Petri dish, 18 weeks): 13% | m-salicylic acid content ([5]; 25° C., all eight conditions): stable | Nicotine loss ([5]; 25° C., up to 18 weeks, all conditions except Petri dish): ≤ 7 % of initial | m-salicylate content ([5]; 40° C., all other configurations, 16 weeks): 100-110 % of initial | loss of nicotine content ([5]; 40° C., all other stabilized (sealed) conditions): ≤ 10% | loss of nicotine content ([5]; 40° C., sealed standard sized pouches containing polycarbonate material): ~20% | m-salicylate content ([5]; Petri dish, four weeks at 40° C.): ~80 % of initial | time coated film relatively stable (not more than 20% nicotine loss) ([6]; 22° C./60% RH): up to 4 weeks | time coated film relatively stable (not more than 20% nicotine loss) ([6]; 35° C./80% RH): ≤ 5 days | time coated film relatively stable (not more than 20% nicotine loss) ([6]; 60° C./35% RH): up to 4 hours | time coated film stable (nicotine) ([6]; 22° C./60% RH): ≥ 4 weeks | time coated film stable (nicotine) ([6]; 25° C./90% RH): ≥ 13 days | time coated film stable (nicotine) ([6]; 35° C./80% RH): ≥ 7 days | time coated film stable (nicotine) ([6]; 60° C./35% RH): at least 8 hours | M-salicylic acid stability of coated films ([6]; all conditions except the 40 μg/foil dose at 25° C./90% RH): relatively stable

Nicotine bifumarate
Nicotine Mass Loss ([3]; 40° C.): 12 µg/day | Nicotine Mass Loss ([3]; 50° C.): 66 µg/day | Nicotine Mass Loss ([3]; 60° C.): 305 µg/day

CN1CCC[C@H]1c1cccnc1.O=C(O)c1ccccc1O [Nicotine o-salicylate, nicotine ortho-salicylate]
Nicotine Mass Loss ([3]; 40° C.): 15 µg/day | Nicotine Mass Loss ([3]; 50° C.): 48 µg/day | Nicotine Mass Loss ([3]; 60° C.): 178 µg/day

CN1CCCC1c1cccnc1.O=C(O)C(O)C(O)C(=O)O (stereo not drawn) [Nicotine bitartrate]
Nicotine Mass Loss ([3]; 40° C.): 1 µg/day | Nicotine Mass Loss ([3]; 50° C.): 3 µg/day | Nicotine Mass Loss ([3]; 60° C.): 10 µg/day

CN1CCCC1c1cccnc1.O=C(O)/C=C/C(=O)O (stereo not drawn) [Nicotine monofumarate]
Nicotine Mass Loss ([3]; 40° C.): 7 µg/day | Nicotine Mass Loss ([3]; 50° C.): 39 µg/day | Nicotine Mass Loss ([3]; 60° C.): 219 µg/day

CN1CCCC1c1cccnc1 (stereo not drawn) [Nicotine]
vapor pressure [7]: 0.0425 mmHg

CC(C)(C(=O)O)C(=O)O.CC(C)(C(=O)O)C(=O)O.CN1CCCC1c1cccnc1 (stereo not drawn) [Nicotine bidimethylmalonate]
Nicotine Mass Loss ([3]; 40° C.): 4 µg/day | Nicotine Mass Loss ([3]; 50° C.): 14 µg/day | Nicotine Mass Loss ([3]; 60° C.): 53 µg/day
